Test results taken from the CheMixHub viscosity set.
Several values for one entry are separate records, joined by “and”; a condition that tells them apart may be missing. Equal values may be shown once.

Test: xn = mol fraction of the nth substance listed
Conditions: 298.15 K

CC(C)(C)O + O
Conditions	viscosity
100 kPa, x1 = 0.1	3.149 mPa·s
100 kPa, x1 = 0.25	4.729 mPa·s
100 kPa, x1 = 0.3	4.782 mPa·s
100 kPa, x1 = 0.4	4.889 mPa·s
100 kPa, x1 = 0.5	4.646 mPa·s
100 kPa, x1 = 0.75	4.225 mPa·s
101 kPa, x1 = 0.026	1.506 mPa·s
101 kPa, x1 = 0.057	2.309 mPa·s
101 kPa, x1 = 0.094	3.123 mPa·s
101 kPa, x1 = 0.14	3.797 mPa·s
101 kPa, x1 = 0.2	4.311 mPa·s
101 kPa, x1 = 0.27	4.715 mPa·s
101 kPa, x1 = 0.36	4.835 mPa·s
101 kPa, x1 = 0.49	4.73 mPa·s
101 kPa, x1 = 0.69	4.355 mPa·s
101.33 kPa, x1 = 0.02	1.315 mPa·s and 1.33 mPa·s and 1.27 mPa·s
101.33 kPa, x1 = 0.0206	1.337 mPa·s
101.33 kPa, x1 = 0.026	1.52 mPa·s and 1.45 mPa·s
101.33 kPa, x1 = 0.0397	1.85 mPa·s
101.33 kPa, x1 = 0.04	1.89 mPa·s and 1.79 mPa·s
101.33 kPa, x1 = 0.0447	2.015 mPa·s
101.33 kPa, x1 = 0.057	2.35 mPa·s and 2.19 mPa·s
101.33 kPa, x1 = 0.06	2.379 mPa·s and 2.42 mPa·s and 2.26 mPa·s
101.33 kPa, x1 = 0.0745	2.78 mPa·s
101.33 kPa, x1 = 0.0798	2.818 mPa·s
101.33 kPa, x1 = 0.094	3.16 mPa·s and 2.97 mPa·s
101.33 kPa, x1 = 0.1	3.26 mPa·s and 3.05 mPa·s
101.33 kPa, x1 = 0.101	3.238 mPa·s
101.33 kPa, x1 = 0.1121	3.55 mPa·s
101.33 kPa, x1 = 0.1181	3.532 mPa·s
101.33 kPa, x1 = 0.139	3.88 mPa·s and 3.66 mPa·s
101.33 kPa, x1 = 0.1395	3.842 mPa·s
101.33 kPa, x1 = 0.1574	4.288 mPa·s
101.33 kPa, x1 = 0.1609	4.176 mPa·s
101.33 kPa, x1 = 0.196	4.47 mPa·s and 4.41 mPa·s
101.33 kPa, x1 = 0.198	4.441 mPa·s
101.33 kPa, x1 = 0.2199	4.888 mPa·s
101.33 kPa, x1 = 0.267	4.89 mPa·s and 4.86 mPa·s
101.33 kPa, x1 = 0.3027	4.984 mPa·s
101.33 kPa, x1 = 0.3035	5.292 mPa·s
101.33 kPa, x1 = 0.362	4.99 mPa·s and 4.96 mPa·s
101.33 kPa, x1 = 0.4285	5.484 mPa·s
101.33 kPa, x1 = 0.4313	5.285 mPa·s
101.33 kPa, x1 = 0.4315	5.316 mPa·s
101.33 kPa, x1 = 0.493	4.86 mPa·s and 4.86 mPa·s
101.33 kPa, x1 = 0.4939	5.199 mPa·s
101.33 kPa, x1 = 0.5001	4.811 mPa·s
101.33 kPa, x1 = 0.5965	4.912 mPa·s
101.33 kPa, x1 = 0.686	4.48 mPa·s and 4.5 mPa·s
101.33 kPa, x1 = 0.6961	4.646 mPa·s
101.33 kPa, x1 = 0.6976	4.409 mPa·s
101.33 kPa, x1 = 0.7888	4.392 mPa·s
101.33 kPa, x1 = 0.7907	4.397 mPa·s
101.33 kPa, x1 = 0.7931	4.254 mPa·s
101.33 kPa, x1 = 0.822	4.27 mPa·s and 4.28 mPa·s
101.33 kPa, x1 = 0.8932	4.308 mPa·s
101.33 kPa, x1 = 0.9088	4.222 mPa·s
101.33 kPa, x1 = 0.9422	4.288 mPa·s
